For one data set, the system named is E. tarda. The data set can be described thus: pH stability (residual antibacterial activity, inhibition zone). The conditions noted are these: pH values of 2–10, 3 h incubation; N6 128 μg/mL, norfloxacin 10 μg/mL; inhibition zone method vs E. tarda. The data set is classed as physicochemical, Edwardsiella tarda. How it is done: To evaluate the thermal stability of peptides, N6 and N6NH2 were incubated for 1 h at 4, 20, 40, 60, 80 and 100 °C. To measure the pH stability, peptides were incubated for 3 h in 100 mM glycine-HCl buffer (pH 2.0), sodium acetate buffer (pH 4.0), sodium phosphate buffer (pH 6.0), Tris-HCl buffer (pH 8.0) or glycine-NaOH buffer (pH 10.0). In addition, peptides were incubated for 4 h at 37 °C in pepsin (3,000 U/mg, pH 2.0) and trypsin (250 U/mg, pH 8.0) (10:1, w/w) solutions, respectively. […] After treatment, 30 μL of solutions were taken out to determine the antibacterial activity of peptides against E. tarda by the inhibition zone method. The untreated peptides were used as the control. All tests were conducted in triplicate.

In data set [1] the test system is inner membrane of E. tarda. In words: Inner membrane penetration, PI staining, flow cytometry. The data set is classed as cell-based, Edwardsiella tarda. As for the experimental part:
After washing twice with PBS, the cells were incubated with PI (50 μg/mL) for 15 min and analyzed using a FACS Calibur Flow Cytometer (BD, San Jose, CA, USA).

Another data set relates to fish genome DNA. In words: Gel migration (DNA binding) assay. The conditions noted are these: O. niloticus genomic DNA, Supplementary Figure S2. As for the experimental part:
The genomic DNA of E. tarda or O. niloticus was incubated for 10 min at room temperature with different concentrations of N6 and N6NH2 in binding buffer (5% glycerol, 10 mM Tris-HCl, pH 8.0, 20 mM KCl, 1 mM EDTA, 1 mM dithiothreitol and […] BSA). The mass ratios of peptides and DNA were 0, 0.5, 1, 2, 4, 6, 8, and 10, respectively. The migration of DNA was evaluated by electrophoresis on a 0.7% agarose gel.

Data set [2] in a line: LPS binding, BODIPY-TR-cadaverine displacement. As to conditions: 0.5 µM LPS, 5 μM BC, Tris buffer pH 7.4; 0.049 μM to 50 μM; excitation/emission 580/620 nm. Further details: species or system E. coli.
For data set [3], the system named is Salmonella typhimurium CVCC533.
Data set [4] concerns Pseudomonas aeruginosa CICC21630.
The mark [5] stands for this setting: broth microdilution, MHB, 1 × 10^5 CFU/mL, 37 °C 18–24 h, n = 3, some N6 data from ref 19.

Like-named read-outs stand apart in the source and are kept apart here. Where a SMILES comes first, the peptide text is derived from it. Bridges are numbered along the chain shown (N, C = ends).

Regarding `CC(C)[C@@H]1NC(=O)CNC(=O)[C@H](CC(N)=O)NC(=O)[C@H](CCCNC(=N)N)NC(=O)[C@H](Cc2ccc(O)cc2)NC(=O)[C@H](C(C)C)NC(=O)[C@@H](NC(=O)[C@@H](NC(=O)[C@H](CC(N)=O)NC(=O)[C@H](Cc2c[nH]c3ccccc23)NC(=O)[C@H](C)NC(=O)[C@H](Cc2ccccc2)NC(=O)CN)C(C)C)CSSC[C@@H](C(=O)N[C@@H](Cc2c[nH]cn2)C(=O)N[C@@H](CCCNC(=N)N)C(=O)N[C@@H](CCCNC(=N)N)C(=O)N[C@@H](C)C(=O)N[C@@H](CC(N)=O)C(=O)O)NC(=O)[C@H](C(C)C)NC(=O)[C@H](CCCNC(=N)N)NC1=O` [Peptide N6] (H-GFAWNVCVYRNGVRVCHRRAN-OH; disulfide 7-16; N-terminus assumed), the “antibacterial activity at different pH values” in the data set on E. tarda was “strong antibacterial activity”. Moreover, the “percentage of E. tarda stained with PI” value in [1] (4 × MIC, 120 min, 1 × 10^8 CFU/mL, PI 50 μg/mL, flow cytometry) is on record as 77.7%; in [1] (within 30 min, 1×, 2× and 4× MIC) it was “less than 5%”. Moreover, the “mass ratio at which migration of fish genome DNA is prevented” value with fish genome DNA was found to be 2. Also, the “binding to LPS (displacement of BC probe)” value in [2] is recorded as “potent LPS-binding affinity”. Moreover, the MIC against Aeromonas veronii is 2.58 µM; with Aeromonas veronii (setting [5]), 6.4 µg/mL; against E. coli CVCC25922 (CVCC25922), 0.1 µM; in the data set with E. coli CVCC25922 (setting [5]) it was 0.25 µg/mL; in data set [3] (setting [5]) it was 1 µg/mL; in data set [3] (murium CVCC533), 0.4 µM. Moreover, the MIC against S. enteritidis CVCC3377 (CVCC3377) was determined as 0.1 µM; against S. enteritidis CVCC3377 (setting [5]), 0.25 µg/mL; in the data set on S. pullorum CVCC1802 (CVCC1802), 0.2 µM; with S. pullorum CVCC1802 (setting [5]), 0.5 µg/mL; in data set [4] (CICC21630) it was 1.6 µM; in data set [4] (setting [5]), 4 µg/mL. In addition, the MIC in the data set with S. aureus ATCC25923 (ATCC25923) came to 0.1 µM; against S. aureus ATCC25923 (setting [5]), 0.25 µg/mL; with S. hyicus 437-2, 25.8 µM; with S. hyicus 437-2 (setting [5]), 64 µg/mL.
